{"source": "PubChem BioAssay AID1195", "about": "(EPA DSSTox, 2008)", "test_system": "human maximum recommended daily dose, FDA database", "experiment": "DSSTox (FDAMDD) FDA Maximum (Recommended) Daily Dose Database", "conditions": "hits give low values", "excerpt": "The Food and Drug Administration (FDA) Center for Drug Evaluation and Research, Office of Pharmaceutical Science, Informatics and Computational Safety Analysis Staff's Maximum Recommended Daily Dose (FDAMDD) database contains values for over 1200 pharmaceuticals listed in Martindale: The Extra Pharmacopoeia (1973, 1983, and 1993) and The Physicians' Desk Reference (1995 and 1999). Some classes of chemicals were excluded from the FDAMDD database due to their unsuitability for most QSAR modeling programs. These were inorganic chemicals, high molecular weight polymers (>5000 Daltons), fibers, salts, mixtures of organic chemicals, and small molecules (<100 Daltons). FDAMDD is the non-proprietary portion of the database that was used in the QSAR analysis reported in the Main Citation. DSSTox FDAMDD has fewer substance records than the original MRDD Source database due to consolidation of partial structures (i.e., complexed entities) into a single record and elimination of duplicate entries. DSSTox FDAMDD also differs from the MRDD Source database in presenting complete structural information pertaining to the actual salt or complexed form corresponding to the listed ChemicalName and CASRN. According to the Source authors, there are a number of cases where multiple related forms or derivatives of a drug were listed as separate records but were assumed to fall under the same clinical toxicity assessment and, therefore, assigned the same Dose_MRDD_mg activity value. For the DSSTox FDAMDD, we have labeled these derivatives in the ChemClass_MRDD_grouping field and provide their counts in the ChemicalReplicateCount field to highlight their special nature.\nMaximum recommended daily dose (or maximum recommended therapeutic dose) values were determined from pharmaceutical clinical trials that employed an oral route of exposure and daily treatments, usually for 3-12 months. Drugs were given as single or divided dose treatment regimens to achieve desired pharmacological effects. Roughly 5% of the pharmaceuticals in the FDAMDD data file were antineoplastics and anesthetics and were administered intravenously and/or intramuscularly. When separate MRDDs were reported for different routes of exposure, only the oral MRDD was included in the data file and only MRDD values reported for the average adult patient were used. Pharmaceuticals that are administered orally are usually tested over a limited range of doses and have MRDDs reported as mg/day. The mg/day unit was converted to mg/kg-body weight (bw)/day based upon an average adult weighing 60 kg. In contrast, the dose unit for most antineoplastic drug MRDDs is reported as mg/m2 which was converted to mg/kg-bw/day using the formula mg/kg-bw/day = mg/m2/37 for an average adult. Additionally, a few drugs had MRDDs reported in parts per million (ppm) which were converted to mg/kg-bw/day on the basis that 1000 ppm equals 25 mg/kg-bw/day for an average 60 kg adult. Activity Score is mapping of LOG10(1/Dose_MRDD_mmol) spanning activity range [MIN, MAX] onto Integer 1-100 Activity range, where 100 is highest potency and 1 is lowest potency: ActivityScore = 100 * INTEGER[(LOGINV_MRDD_mmol - MIN)/(MAX […] MIN)]. Activity Outcome is \"active\" for all substances, since Dose_MRDD_mmol is reported for all substances.", "key": {"[1]": {"conditions": "TherapeuticCategory: anticonvulsant"}, "[2]": {"conditions": "TherapeuticCategory: antineoplastic"}, "[3]": {"conditions": "TherapeuticCategory: antibacterial"}}}
{"molecule": "NC(N)=NCCN1CCCCCCC1", "values": [{"measurement": "maximum recommended daily dose (mmol/kg-bw/day)", "setting": "TherapeuticCategory: antihypertensive", "result": 0.0042}]}
{"molecule": "CCN(CC)CCCC(C)Nc1c2ccc(Cl)cc2nc2ccc(OC)cc12", "note": "(stereo unspecified)", "values": [{"measurement": "maximum recommended daily dose (mmol/kg-bw/day)", "setting": "TherapeuticCategory: antithelmintic, antimalarial", "result": 0.0125}]}
{"molecule": "C#C[C@]1(O)CC[C@H]2[C@@H]3[C@H](C)CC4=C(CCC(=O)C4)[C@H]3CC[C@@]21C", "values": [{"measurement": "maximum recommended daily dose (mmol/kg-bw/day)", "setting": "TherapeuticCategory: treatment of menopausal syndrome", "result": 0.000133}]}
{"molecule": "CCC1C(=O)OCC1Cc1cncn1C", "note": "(stereo unspecified)", "values": [{"measurement": "maximum recommended daily dose (mmol/kg-bw/day)", "setting": "TherapeuticCategory: antiglaucoma, miotic", "result": 0.0024}]}
{"molecule": "OC[C@H]1OC(O)[C@H](O)[C@@H](O)[C@@H]1O", "note": "(stereo partly specified)", "values": [{"measurement": "maximum recommended daily dose (mmol/kg-bw/day)", "setting": "TherapeuticCategory: fluid and nutrient replenisher", "result": 0.555}]}
{"molecule": "C[C@]12CC[C@H](O)CC1=CC[C@@H]1[C@@H]2CC[C@]2(C)C(=O)CC[C@@H]12", "values": [{"measurement": "maximum recommended daily dose (mmol/kg-bw/day)", "setting": "TherapeuticCategory: androgen", "result": 0.0115}]}
{"molecule": "CCN(CC)C(C)CN1c2ccccc2Sc2ccccc21", "note": "(stereo unspecified)", "values": [{"measurement": "maximum recommended daily dose (mmol/kg-bw/day)", "setting": "TherapeuticCategory: antiparkinsonian, anticholinergic", "result": 0.032}]}
{"molecule": "N=C(N)c1ccc(/C=C/c2ccc(C(=N)N)cc2O)cc1", "values": [{"measurement": "maximum recommended daily dose (mmol/kg-bw/day)", "setting": "TherapeuticCategory: antiprotozoal", "result": 0.0149}]}
{"molecule": "CC(C)NNC(=O)c1ccncc1", "values": [{"measurement": "maximum recommended daily dose (mmol/kg-bw/day)", "setting": "TherapeuticCategory: monoamine oxidase inhibitor, antidepressant", "result": 0.0139}]}
{"molecule": "CN1C(=O)CC(c2ccccc2)C1=O", "note": "(stereo unspecified)", "values": [{"measurement": "maximum recommended daily dose (mmol/kg-bw/day)", "setting": "[1]", "result": 0.264}]}
{"molecule": "NCC1(CC(=O)O)CCCCC1", "values": [{"measurement": "maximum recommended daily dose (mmol/kg-bw/day)", "setting": "[1]", "result": 0.117}]}
{"molecule": "CCC1(c2ccccc2)NC(=O)N(C)C1=O", "note": "(stereo unspecified)", "values": [{"measurement": "maximum recommended daily dose (mmol/kg-bw/day)", "setting": "[1]", "result": 0.0458}]}
{"molecule": "CCC(C)n1ncn(-c2ccc(N3CCN(c4ccc(OC[C@H]5CO[C@](Cn6cncn6)(c6ccc(Cl)cc6Cl)O5)cc4)CC3)cc2)c1=O", "note": "(stereo partly specified)", "values": [{"measurement": "maximum recommended daily dose (mmol/kg-bw/day)", "setting": "TherapeuticCategory: antifungal", "result": 0.0142}]}
{"molecule": "Cc1ccccc1OCC(O)CO", "note": "(stereo unspecified)", "values": [{"measurement": "maximum recommended daily dose (mmol/kg-bw/day)", "setting": "TherapeuticCategory: skeletal muscle relaxant", "result": 0.274}]}
{"molecule": "O=C1Cc2cc(CCN3CCN(c4nsc5ccccc45)CC3)c(Cl)cc2N1", "values": [{"measurement": "maximum recommended daily dose (mmol/kg-bw/day)", "setting": "TherapeuticCategory: antipsychotic, dopamine receptor antagonist, seratonin receptor antagonist", "result": 0.00647}]}
{"molecule": "CNC1(c2ccccc2Cl)CCCCC1=O", "note": "(stereo unspecified)", "values": [{"measurement": "maximum recommended daily dose (mmol/kg-bw/day)", "setting": "TherapeuticCategory: anesthetic", "result": 0.00841}]}
{"molecule": "CCN1C(=O)NC(c2ccccc2)C1=O", "note": "(stereo unspecified)", "values": [{"measurement": "maximum recommended daily dose (mmol/kg-bw/day)", "setting": "[1]", "result": 0.245}]}
{"molecule": "CC(C)(C)c1nnc(NS(=O)(=O)c2ccccc2)s1", "values": [{"measurement": "maximum recommended daily dose (mmol/kg-bw/day)", "setting": "TherapeuticCategory: antidiabetic", "result": 0.042}]}
{"molecule": "CCN(CC)C(=O)Nc1ccc(OCC(O)CNC(C)(C)C)c(C(C)=O)c1", "note": "(stereo unspecified)", "values": [{"measurement": "maximum recommended daily dose (mmol/kg-bw/day)", "setting": "TherapeuticCategory: antihypertensive, antianginal", "result": 0.0176}]}
{"molecule": "S=P(N1CC1)(N1CC1)N1CC1", "values": [{"measurement": "maximum recommended daily dose (mmol/kg-bw/day)", "setting": "[2]", "result": 0.00211}]}
{"molecule": "CC(=O)NCCOC(=O)C(Oc1cccc(C(F)(F)F)c1)c1ccc(Cl)cc1", "note": "(stereo unspecified)", "values": [{"measurement": "maximum recommended daily dose (mmol/kg-bw/day)", "setting": "TherapeuticCategory: antihyperlipoproteinemic, uricosuric", "result": 0.0402}]}
{"molecule": "Cn1nnnc1SCC1=C(C(=O)O)N2C(=O)[C@@H](NC(=O)[C@H](O)c3ccccc3)[C@H]2SC1", "values": [{"measurement": "maximum recommended daily dose (mmol/kg-bw/day)", "setting": "[3]", "result": 0.216}]}
{"molecule": "Nc1nc(Cl)nc2c1ncn2[C@H]1C[C@H](O)[C@@H](CO)O1", "values": [{"measurement": "maximum recommended daily dose (mmol/kg-bw/day)", "setting": "[2]", "result": 0.000315}]}
{"molecule": "CCC(=O)O[C@H]1[C@H](O[C@@H]2[C@@H](C)[C@H](O[C@H]3C[C@@](C)(OC)[C@@H](O)[C@H](C)O3)[C@@H](C)C(=O)O[C@H](CC)[C@@](C)(O)[C@H](O)[C@@H](C)C(=O)[C@H](C)C[C@@]2(C)O)O[C@H](C)C[C@@H]1N(C)C", "values": [{"measurement": "maximum recommended daily dose (mmol/kg-bw/day)", "setting": "[3]", "result": 0.0844}]}
{"molecule": "CC(=O)OC(C)C[N+](C)(C)C", "note": "(stereo unspecified)", "values": [{"measurement": "maximum recommended daily dose (mmol/kg-bw/day)", "setting": "TherapeuticCategory: cholinergic, diagnostic aid", "result": 0.00213}]}
{"molecule": "N#Cc1ccc(C(c2ccc(C#N)cc2)n2cncn2)cc1", "values": [{"measurement": "maximum recommended daily dose (mmol/kg-bw/day)", "setting": "[2]", "result": 0.000146}]}
{"molecule": "Oc1c(I)cc(Cl)c2cccnc12", "values": [{"measurement": "maximum recommended daily dose (mmol/kg-bw/day)", "setting": "TherapeuticCategory: topical anti infective, antiamebic", "result": 0.0818}]}
{"molecule": "CCN(CC)CCNc1ccc(CO)c2sc3ccccc3c(=O)c12", "values": [{"measurement": "maximum recommended daily dose (mmol/kg-bw/day)", "setting": "TherapeuticCategory: antihelmintic", "result": 0.0281}]}
{"molecule": "Cc1ccc(/C(=C/CN2CCCC2)c2ccccn2)cc1", "values": [{"measurement": "maximum recommended daily dose (mmol/kg-bw/day)", "setting": "TherapeuticCategory: antihistaminic", "result": 0.0006}]}
{"molecule": "CCN(CC)S(=O)(=O)c1ccc(C(=O)O)cc1", "values": [{"measurement": "maximum recommended daily dose (mmol/kg-bw/day)", "setting": "TherapeuticCategory: uricosuric", "result": 0.194}]}
{"molecule": "Nc1nc(F)nc2c1ncn2[C@@H]1O[C@H](COP(=O)(O)O)[C@@H](O)[C@@H]1O", "values": [{"measurement": "maximum recommended daily dose (mmol/kg-bw/day)", "setting": "[2]", "result": 0.00185}]}
